The test system of series [1] is Enterococcus faecium #17501 (vancomycin-resistant clinical isolate). As to the kind of experiment: MIC determination in broth microdilution assay. The series is classed as cell-based. Particulars: E: Enterococcus faecium #17501 vancomycin-resistant clinical isolate; MH-broth microdilution.
For series [2], the system named is Staphylococcus aureus ATCC33591 (resistant to methicillin). Briefly: MIC determination in broth microdilution assay. The series is classed as cell-based. To be noted: B: Staphylococcus aureus ATCC33591 (resistant to methicillin); MH-broth microdilution. (In broth dilution the organism is exposed to a series of concentrations in liquid medium.)
A short description of series [3]: MIC of D-001 quoted in the pharmacokinetic profile (strain not named). The series is classed as cell-based.
In series [4] the test system is panel of anaerobic bacteria (Bacteroides fragilis, Clostridium perfringens, Clostridium difficele). The series is classed as cell-based. Particulars: single concentration of compound (100 μM); agar dilution. A general note: In agar dilution the substance is mixed into plates at graded concentrations.
Series [5] deals with panel of six strains Helicobacter pylori, includes strains resistant to metronidazole. As to the kind of experiment: MIC determination against Helicobacter pylori (agar dilution). To be noted: 72 h, read-out: MICs against Helicobacter pylori.
Series [6] relates to panel of 10 different non-fastidious bacteria growing aerobically. Briefly: Activity against non-fastidious bacteria (panel, discussed in words). Particulars: Gram-positive non-fastidious bacteria; comparison with Licochalcone A. The series is classed as cell-based.
Series [7] deals with Staphylococcus intermedius #2357 (clinical isolate from the Copenhagen area). As to the kind of experiment: MIC determination in broth microdilution assay. The series is classed as cell-based. Particulars: C: Staphylococcus intermedius #2357 clinical isolate; MH-broth microdilution.
Series [8] has as its system Eschericia coli ATCC25922. As to the kind of experiment: MIC determination in broth microdilution assay. The series is classed as cell-based. Particulars: G: Eschericia coli ATCC25922; MH-broth microdilution.
Series [9] concerns Streptococcus pneumoniae #998 (clinical isolate). Briefly: MIC determination in broth microdilution assay. The series is classed as cell-based. To be noted: F: Streptococcus pneumoniae #998 clinical isolate; MH-broth microdilution.
A short description of series [10]: Pharmacokinetic studies, intravenous, mice. The series is classed as in vivo, female NMRI mice. As to the method:
Evaluation of the pharmacokinetic properties of the compounds was done using female NMRI mice (weighing app. 30 g). Test articles were administrated intravenously and Samples of serum were taken at defined time-points. Standards and QC-samples in plasma were prepared and the serum concentrations of the test compounds quantified by HPLC-MS. Prior to analysis, proteins were precipitated by deluding the samples (1:1) (v/v) with 100% acetonitrile followed by centrifugation at 14,000 rpm in 10 min. The supernatant was used for the analysis. A Waters Alliance HPLC-system (Milford, Mass., USA) was coupled to a Quatro Micro triple quadropl mass spectrometer (Micromass, Manchester, UK) operating in positive (ESI) mode. Separation was performed on a XTerra MS C18 column (150*2.1 mm I.D., 3,5 μm particle size) (Waters Milford, Mass., USA). Mobile phase A: 0.1% (v/v) formic acid or 10 mM ammonium acetate pH-adjusted to 9.5 in MilliQ-water, mobile phase B: 100% methanol. The gradient was as follows: 0 min=70% A-30% B, 0-10 min. a linear gradient to 10% A and 90% B this was maintained till 11 min, 11-13 linear gradient to 70% A and 30% B this was maintained till 18 min. The flow rate was 0.20 ml/min, injection volume 10 μl.

For series [11], the system named is Staphylococcus aureus ATCC29213. Briefly: MIC determination in broth microdilution assay. The series is classed as cell-based. To be noted: A: Staphylococcus aureus ATCC29213; MH-broth microdilution.
For series [12], the system named is Enterococcus faecalis ATCC29212. Briefly: MIC determination in broth microdilution assay. To be noted: D: Enterococcus faecalis ATCC29212; MH-broth microdilution. The series is classed as cell-based.

From patent publication US20080027075A1, “Quaternary Amino-Function Chalcones” (Lica Pharmaceuticals A/S, priority 2003, published 2008) come the findings set out here.

For the molecule `COc1ccc(C(=O)/C=C/c2cc(-c3cc(C)cc(C)c3)ccc2OCC[N+](C)(C)C)c(Cl)c1.[I-]` [D-001, (2-{3-[3-(2-Chloro-4-methoxy-phenyl)-3-oxo-propenyl]-3′,5′-dimethyl-biphenyl-4-yloxy}-ethyl)-trimethyl-ammonium; iodide], the MIC in [1] was 4.7 µM; in series [2] it was 4.7 µM; in [3], “approximately 1 μg/mi”; in [5] it was 50 to 100 µM; in series [7] it was 2.4 µM; in series [8], 37.5 µM. Also, the MIC in [9] is 18.8 µM; in series [11] it was 2.4 µM; in series [12] it was 4.7 µM. The “activity against anaerobic bacteria” value in [4] is given as “activity against all microorganisms within the test panel”. Also, the “activity against pathogenic Gram-positive bacteria (in words)” value in series [6] was “increased potency”. Besides, the concentration in series [10] (female, NMRI, mouse, serum, iv, single i.v. dose of 5 mg/ml) peaked (Cmax) at 126 µg/mL. In addition, the volume of distribution entry in series [10] (i.v., as indicated by the plasma concentration) is “very low”.

What is called Cmax is the highest concentration seen after dosing.
